Counter-ions that a name gives are not always drawn. Like-named read-outs stand apart in the source and are kept apart here.
Test system: mice
Experiment: Neuropharmacological Assay (SmartCube): automated behavioral signature of compound-treated mice compared with a database of reference drug classes
Format: in vivo
Conditions: for minimal effective dose: Mus musculus, ip; for minimal effective dose / MED / MED (minimal effective dose): i.p., that dose is shown
How it was run: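 Probabilities of matching each neuropharmacological class (e.g. anxiolytic, antidepressant) come from algorithmic analysis of digitally recorded behaviour, reported for 3.0 mg/kg. Compounds were given intraperitoneally in a Pharmasolve/PEG/propylene glycol vehicle 15 min pre-test. Minimal effective dose is the lowest dose reaching 45% or more total activity.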

[1] = minimal effective dose: dose having 45% or more total activity in SmartCube, if only one dose tested, read-out: MED
[2] = SmartCube class probability, 3.0 mg/kg i.p., 15 min before test
[3] = SmartCube class probability, 3.0 mg/kg i.p., 15 min before test, hydrochloride, 3 mg/kg
[4] = minimal effective dose: dose having 45% or more total activity in SmartCube, if only one dose tested
[5] = dose having 45% or more total activity in SmartCube, if only one dose was tested, hydrochloride
[6] = probability that activity matches this class of agents, 3.0 mg/kg i.p., 15 min before test
[7] = probability that activity matches this class of agents, 3.0 mg/kg i.p., 15 min before test, hydrochloride, 3 mg/kg
[8] = minimal effective dose: dose having 45% or more total activity in SmartCube, if only one dose tested, hydrochloride
[9] = dose having 45% or more total activity in SmartCube, if only one dose was tested, read-out: MED (minimal effective dose)
[10] = SmartCube probability class, 3.0 mg/kg dose, i.p. 15 min before the behavioral test
[11] = probability that activity matches this class of agents, 3.0 mg/kg i.p., 15 min before test, 3 mg/kg

CNC1CCc2sc(Cl)c(Cl)c2C1 (centres unmarked) [Compound 220, 2,3-dichloro-N-methyl-4,5,6,7-tetrahydrobenzothiophen-5-amine hydrochloride]
> 3 mg/kg: minimal effective dose [1]
++ (≥24%): UK [2]
ND (^ <4%): AD [2] | AG [2] | AN [2] | AP [2] | AX [2] | CE [2] | HL [2] | MS [2] | PS [2] | SH [2]

CNC1CCc2c(Cl)csc2C1 (single isomer, unassigned) [Compound 199, 3-chloro-N-methyl-4,5,6,7-tetrahydrobenzothiophen-6-amine hydrochloride]
+ (≥4%): HL [3]
<3 mpk: MED [4]
ND (^ <4%): AD [2] | AG [2] | AN [2] | AX [2] | CE [2] | MS [2] | PS [2] | SH [2] | UK [2] | AP [3]

CNC1CCc2c(csc2C)C1 (single isomer, unassigned) [Compound 32, N, 1-dimethyl-4,5,6,7-tetrahydro-2-benzothiophen-5-amine hydrochloride]
ND (^ <4%): AG [6] | AN [6] | CE [6] | HL [6] | MS [6] | PS [6] | SH [6] | UK [6]
+ (≥4%): AP [7]
1.0 mpk: MED (minimal effective dose) [5]
+++ (≥49%): AD [6]
++ (≥24%): AX [7]

NC1CCc2c(C(F)(F)F)csc2C1 (single isomer, unassigned) [Compound 244, 3-(trifluoromethyl)-4,5,6,7-tetrahydrobenzothiophen-6-amine hydrochloride]
ND (^ <4%): AG [2] | AN [2] | AP [2] | AX [2] | CE [2] | HL [2] | MS [2] | PS [2] | SH [2] | UK [2]
++++ (≥74%): AD [3]
<3 mpk: MED [8]

CNC1CCc2c(F)sc(C)c2C1 (single isomer, unassigned) [Compound 211, 1-fluoro-N, 3-dimethyl-4,5,6,7-tetrahydro-2-benzothiophen-5-amine hydrochloride]
ND (^ <4%): AD [2] | AG [2] | AN [2] | AX [2] | CE [2] | HL [2] | MS [2] | PS [2] | SH [2] | UK [3]
<3 mpk: MED [8]
++++ (≥74%): AP [3]

NC1CCc2cscc2C1 (single isomer, unassigned) [Compound 167, 4,5,6,7-tetrahydro-2-benzothiophen-5-amine hydrochloride]
++ (≥24%): AD [3]
+ (≥4%): PS [3]
+++ (≥49%): AX [2]
1 mpk: MED [4]
ND (^ <4%): AG [2] | AN [2] | CE [2] | HL [2] | MS [2] | SH [2] | UK [2] | AP [3]

CNC1CCc2scc(F)c2C1 (single isomer, unassigned) [Compound 137, 3-fluoro-N-methyl-4,5,6,7-tetrahydrobenzothiophen-5-amine hydrochloride]
ND (^ <4%): AD [6] | AG [6] | AN [6] | CE [6] | HL [6] | MS [6] | PS [6] | SH [6] | UK [6] | AX [7]
++++ (≥74%): AP [7]
1 mg/kg: minimal effective dose [9]

CNC1COc2c(C(F)(F)F)csc2C1 (centres unmarked) [Compound 248, N-methyl-3-(trifluoromethyl)-6,7-dihydro-5H-thieno[3,2-b]pyran-6-amine hydrochloride]
+++ (≥49%): AD [2]
ND (^ <4%): AN [2] | AP [2] | AX [2] | CE [2] | HL [2] | MS [2] | PS [2] | SH [2] | UK [2]
1 mg/kg: minimal effective dose [1]

CC1(N)CCc2c(C(F)(F)F)csc2C1.Cl (single isomer, unassigned) [Compound 242, 6-methyl-3-(trifluoromethyl)-5,7-dihydro-4H-benzothiophen-6-amine hydrochloride]
ND (^ <4%): AG [2] | AN [2] | AP [2] | AX [2] | CE [2] | HL [2] | MS [2] | PS [2] | SH [2] | UK [3]
+++ (≥49%): AD [3]
3 mpk: MED [4]

CNC1(C)CCc2cscc2C1 (racemic) [Compound 103, racemic N, 5-dimethyl-6,7-dihydro-4H-2-benzothiophen-5-amine hydrochloride]
ND (^ <4%): AD [6] | AG [6] | AN [6] | AP [6] | AX [6] | CE [6] | HL [6] | MS [6] | PS [6] | SH [6]
1 mg/kg: minimal effective dose [9]
+++ (≥49%): UK [6]

CNC1COc2scc(C(F)(F)F)c2C1 (racemic) [Compound 288, N-methyl-5-(trifluoromethyl)-3,4-dihydro-2H-thieno[2,3-b]pyran-3-amine hydrochloride]
> 3 mg/kg: minimal effective dose (minimal effective dose: dose having 45% or more total activity in SmartCube, if only one dose was tested, read-out: MED)
ND (^ <4%): AD [10] | AG [10] | AN [10] | AP [10] | AX [10] | CE [10] | HL [10] | MS [10] | PS [10] | SH [10] | UK [10]

CNC1CCc2csc(C3CC3)c2C1 (centres unmarked) [Compound 95, 3-cyclopropyl-N-methyl-4,5,6,7-tetrahydro-2-benzothiophen-5-amine hydrochloride]
1 mg/kg: minimal effective dose [9]
+++ (≥49%): AD [6]
++ (≥24%): AP [6]
ND (^ <4%): AG [6] | AN [6] | AX [6] | CE [6] | HL [6] | MS [6] | PS [6] | SH [6] | UK [6]

CNC1CCc2c(C)sc(C(F)(F)F)c2C1 (single isomer, unassigned; enantiomer 2) [Compound 105, N, 1-dimethyl-3-(trifluoromethyl)-4,5,6,7-tetrahydro-2-benzothiophen-5-amine hydrochloride enantiomer 2]
>3 mpk: MED (minimal effective dose) (dose having 45% or more total activity in SmartCube, if only one dose was tested)
ND (^ <4%): AD [6] | AG [6] | AN [6] | AX [6] | CE [6] | HL [6] | MS [6] | PS [6] | SH [6] | AP [11] | UK [11]

Cl.c1scc2c1CCC(NC1CC1)C2 (single isomer, unassigned) [Compound 124, N-cyclopropyl-4,5,6,7-tetrahydro-2-benzothiophen-5-amine hydrochloride]
3 mpk: MED (minimal effective dose) [5]
ND (^ <4%): AG [6] | AN [6] | AP [6] | AX [6] | CE [6] | HL [6] | MS [6] | PS [6] | SH [6] | AD [7]
+++ (≥49%): UK [7]

CNC1(C)CCc2cc(C(F)(F)F)sc2C1.Cl (single isomer, unassigned) [Compound 245, N, 6-dimethyl-2-(trifluoromethyl)-5,7-dihydro-4H-benzothiophen-6-amine hydrochloride]
3 mg/kg: minimal effective dose [1]
ND (^ <4%): AG [2] | AN [2] | AX [2] | CE [2] | HL [2] | MS [2] | PS [2] | SH [2] | AP [3]
+ (≥4%): UK [3]
++ (≥24%): AD [3]

— patent US20260274814A1, “THIENYL COMPOUNDS FOR THE TREATMENT OF A CENTRAL NERVOUS SYSTEM DISEASE OR DISORDER” (Coreterra Therapeutics, Inc., priority 2023, published 2026)
